Measured values taken from US12516024B2, “KDM4 inhibitors” (ALBERT-LUDWIGS-UNIVERSITY FREIBURG, priority 2017, dated 2026).

Legend:
[1] = target: KDM5B (Homo sapiens, UniProt Q9UGL1); assay: KDM demethylase inhibition (IC50), KDM5B; type: biochemical; details: in words
Protocol: The expression levels in the BCSC cells of the various KDM4 family members were evaluated by western blot analysis. Metzger et al., LSD1 demethylates repressive histone marks to promote and rogen receptor-dependent transcription, 437 Nature 436 (2005). […] These observations indicate that KDM4 are therapeutic targets for treatment of BCSC populations. Accordingly, a screen to characterize KDM4(i) was performed to explore compounds suitable for treating cancers, in particular cancers such as therapy resistant clonal BCSC-originating tumors.

[2] = Pharmacokinetic study iv/po; type: in vivo; details: dose iv/po 5/10 mg/kg

Sequence of KDM5B (Q9UGL1 whole entry): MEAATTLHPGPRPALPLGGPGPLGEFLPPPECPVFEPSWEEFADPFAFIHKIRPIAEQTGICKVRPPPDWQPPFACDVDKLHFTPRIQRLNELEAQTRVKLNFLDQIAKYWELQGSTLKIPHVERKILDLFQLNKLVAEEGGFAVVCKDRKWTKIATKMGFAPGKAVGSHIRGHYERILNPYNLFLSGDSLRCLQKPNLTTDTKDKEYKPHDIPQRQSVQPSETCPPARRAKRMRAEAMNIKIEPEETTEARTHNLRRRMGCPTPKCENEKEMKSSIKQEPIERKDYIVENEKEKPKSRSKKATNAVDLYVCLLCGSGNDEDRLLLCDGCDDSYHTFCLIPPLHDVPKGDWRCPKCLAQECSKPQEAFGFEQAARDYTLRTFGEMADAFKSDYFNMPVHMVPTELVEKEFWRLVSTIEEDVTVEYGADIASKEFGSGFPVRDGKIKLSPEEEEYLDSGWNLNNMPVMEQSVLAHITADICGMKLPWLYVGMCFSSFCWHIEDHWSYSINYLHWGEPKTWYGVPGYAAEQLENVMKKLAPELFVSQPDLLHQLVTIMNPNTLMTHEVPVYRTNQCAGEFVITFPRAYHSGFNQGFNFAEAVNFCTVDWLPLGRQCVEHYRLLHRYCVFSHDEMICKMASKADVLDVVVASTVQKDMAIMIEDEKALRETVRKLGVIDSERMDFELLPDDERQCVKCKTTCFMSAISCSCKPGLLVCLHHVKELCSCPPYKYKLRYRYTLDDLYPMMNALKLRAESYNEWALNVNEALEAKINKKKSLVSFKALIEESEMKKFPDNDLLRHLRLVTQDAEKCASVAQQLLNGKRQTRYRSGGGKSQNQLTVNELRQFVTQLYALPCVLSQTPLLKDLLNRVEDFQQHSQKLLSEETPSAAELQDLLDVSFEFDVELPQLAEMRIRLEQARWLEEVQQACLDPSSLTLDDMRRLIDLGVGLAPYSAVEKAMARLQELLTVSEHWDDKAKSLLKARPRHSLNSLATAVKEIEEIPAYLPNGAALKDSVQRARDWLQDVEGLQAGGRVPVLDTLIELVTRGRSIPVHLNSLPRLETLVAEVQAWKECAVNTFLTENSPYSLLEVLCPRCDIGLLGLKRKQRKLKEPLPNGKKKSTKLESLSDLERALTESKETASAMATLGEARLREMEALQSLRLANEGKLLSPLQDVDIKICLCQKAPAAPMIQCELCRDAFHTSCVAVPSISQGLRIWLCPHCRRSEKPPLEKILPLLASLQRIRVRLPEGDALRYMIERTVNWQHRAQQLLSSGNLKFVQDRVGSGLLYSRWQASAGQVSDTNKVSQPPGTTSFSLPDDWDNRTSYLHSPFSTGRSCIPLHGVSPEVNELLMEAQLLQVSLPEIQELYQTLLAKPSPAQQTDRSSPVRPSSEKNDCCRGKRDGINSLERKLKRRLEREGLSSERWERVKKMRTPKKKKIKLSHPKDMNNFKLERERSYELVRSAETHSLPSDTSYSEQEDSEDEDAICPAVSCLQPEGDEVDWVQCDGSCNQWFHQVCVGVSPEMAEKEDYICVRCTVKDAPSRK

effect on the demethylase activity of KDM5B [1]: weak effect
bioavailability ([2]; plasma, read-out: F % (bioavailability)): 30.4%
po ½ ([2]; po): 2.57 h
Structure (SMILES): CN(c1ccccc1)c1ccc2c(c1)CCC[C@H]2CNc1cnccc1C(=O)O [Compound I, 3-({[(1R)-6-[methyl(phenyl)amino]-1,2,3,4-tetrahydronaphthalen-1-yl]methyl}amino)pyridine-4-carboxylic acid]
